Experimental data taken from US5981499A, “Lesion-directed antibiotics in dry dosage forms for the treatment of shallow ulcers of the oral mucosa” (Atlantic Biomed Corporation, priority 1998, dated 1999).
Counter-ions that a name gives are not always drawn. Like-named read-outs stand apart in the source and are kept apart here.

How the values were obtained:
[1] = system: Staphylococcus aureus (ATCC 29213); test: Minimum inhibitory concentration against the standard strain by serial two-fold dilution in nutrient broth; type: cell-based
Experimental: For determination of the peak concentration, 1 ml of the bacteria-free filtrate was further diluted with 9 ml of nutrient broth to achieve a 1:10,000 dilution of the saliva. Then a serial two-fold dilution was made of this 1:10,000 diluted saliva sample with an equal volume of nutrient broth in a roll of test tubes to obtain a series of 1 ml aliquots of nutrient broth in which the saliva was diluted to 20,000, 40,000, 80,000, 160,000, 320,000, 640,000, 1,280,000 and 2,560,000 folds respectively. […] Thus the final dilutions of the saliva sample were in the range of 40,000 to 5,120,000 folds.
As control standards, a series of test tubes containing 1 ml of nutrient broth with varying concentrations of penicillin G potassium salt ranging from 0.1 units to 10 units/ml were similarly mixed with an equal volume of nutrient broth freshly inoculated with the standard tubes of Staphylococcus aureus. Both the test and control standard tubes were incubated at 37° C. for 18 hours. Among the test tubes showing no gross evidence of bacterial growth, the one containing the highest dilution of saliva and the one containing the least amount of penicillin G were considered as having the identical concentration of penicillin, i.e. the MIC of the staphylococcus aureus.

[2] = Local peak and one-hour trough antibiotic concentration in loculated saliva at the site of the troche (microbiological dilution assay); type: in vivo, human; details: 50 mg troche; for local trough concentration of penicillin in saliva: end of one-hour duration
Gram-negative bacilli = details: cited from earlier work
[3] = single intravenous injection of penicillin G, usually 500 mg; cited from earlier work
aphthous ulcers = details: background, cited from earlier work; for efficacy of prior treatment: aphthous ulcers/stomatitis
[4] = Concentration at the ulcer assuming the troche dissolves in 0.1 ml of saliva; details: assuming troche dissolved in 0.1 ml saliva
Experimental: Application of the penicillin/magnesium stearate troches in the aforementioned manner created a supratherapeutic concentration of penicillin on the raw surface of the aphthous ulcer. Assuming that the troche is dissolved in 0.1 ml of saliva locally at the ulcer, the initial concentration of penicillin would reach up to 500 mg/ml, and that of magnesium stearate 10 mg/ml. Under the influence of this extraordinarily high concentration of penicillin G or penicillin V, most microorganisms of the normal flora cannot survive or continue to multiply, permitting tissue regeneration processes to occur under the protective barrier coating formed by the magnesium stearate.
When the oxytetracycline hydrochloride/magnesium stearate troches are applied in the manner described in Example 1, extraordinarily high concentrations of antibiotic were released on the raw surface of the treated ulcers. Assuming that the troche is dissolved in 0.1 ml of saliva, the peak concentration of oxytetracycline would be between about 400-800 mg/ml locally at the site of the ulcer, and that of magnesium stearate 10 mg/ml.

[5] = system: Patients with aphthous ulcers; test: Topical treatment of patients with aphthous ulcers; type: in vivo, human
Experimental: Patients with aphthous ulcers were advised to brush their teeth to rid them of food residues, and to rinse their mouths with water prior to initiating treatment.
One penicillin/magnesium stearate troche was placed in the patients' mouths directly over the ulcerated lesion. The troche was dissolved or disintegrated in a minimum amount of saliva directly over the ulcer in no more than 15 minutes, preferably in about 8 to about 12 minutes. The patients were advised to keep the ingredients of the disintegrated troche at the site of the lesion as long as possible. Food and beverages were avoided for one hour after each treatment. If multiple aphthous ulcers were present, one troche was required for the treatment of each ulcer. The topical treatments were conducted 4 times daily, for example, after breakfast, after lunch, after dinner and before bed time for no more than 4 days. […] The burning sensation lessened with subsequent applications.
For instance, the first sign of healing is usually the fading of the hyperemic zone at the periphery of the ulcer and the lessening of edema at the base of the ulcer. The membrane covering the ulcer becomes thinner, more translucent, more pearly white instead of a grayish-yellowish white prior to the application and contract with the troche. […]

[6] = system: Staphylococcus aureus (ATCC 29213); details: ATCC 29213, known range; cited from earlier work

With CC1(C)S[C@@H]2[C@H](NC(=O)Cc3ccccc3)C(=O)N2[C@H]1C(=O)O [penicillin G] the “MIC of penicillin G for the standard strain of Staphylococcus aureus” value ([1]; three experiments, 37° C., 18 hours) was 1 unit/ml, the “local trough concentration of penicillin in saliva” value [2] was 4,000-64,000 units/ml and the “local trough concentration of penicillin in saliva” value ([2]; 60 min) was 2.5 to 40 mg/mL. The Cmax ([2]; human, in vivo, topical or ocular, at complete dissolution, read-out: initial peak local concentration of penicillin G in saliva) was 500000 µg/mL, the “susceptibility of many Gram-negative bacilli (Salmonella, Shigella, most Escherichia coli, all Proteus mirabilis, most Bacteroides strains)” value (Gram-negative bacilli; 740 mcg/ml as cut-off MIC) was “sensitive” and the “susceptibility of Gram-negative bacilli” value (Gram-negative bacilli; at 16 mcg/ml) was “resistant”. For the same compound, the “average peak blood level” value [3] was “about 26 units/ml”.

In the case of O=C1CCC(N2C(=O)c3ccccc3C2=O)C(=O)N1 (stereo not shown) [Thalidomide], the “efficacy of prior treatment” value (aphthous ulcers) is listed as “effective in some HIV-infected patients” and the “adverse reactions of prior treatment” value (aphthous ulcers) is listed as “teratogenic”.

In the case of CCCCCCCCCCCCCCCCCC(=O)O [magnesium stearate], the “concentration of magnesium stearate at the ulcer” value [4] is reported as 10000 µg/mL.

In the case of “aluminum subsalt of sucrose-8-sulfate [sucralfate]”, the “efficacy of prior treatment” value (aphthous ulcers) is listed as “responded”.

With CN(C)[C@@H]1C(=O)C(C(N)=O)=C(O)[C@@]2(O)C(=O)C3=C(O)c4c(O)cccc4[C@@](C)(O)[C@H]3[C@H](O)[C@@H]12 [oxytetracycline hydrochloride, Oxytetracycline hydrochloride] the MIC ([1]; Staphylococcus aureus, ATCC29213, ATCC 29213, read-out: sensitivity to oxytetracycline hydrochloride, MIC) was 1 µg/mL, the “one-hour trough concentration of oxytetracycline hydrochloride in saliva” value ([2]; two subjects, 60 min) was 8 mg/mL and the Cmax ([2]; human, in vivo, topical or ocular, 50 mg, two subjects, read-out: initial peak concentration of oxytetracycline hydrochloride in saliva) was 400000 µg/mL. For the same compound, the concentration at 1 h ([2]; human, in vivo, topical or ocular, two subjects, read-out: one-hour trough concentration of oxytetracycline hydrochloride in saliva) was 8000 µg/mL and the “initial/peak concentration of antibiotic at the ulcer” value [4] was 400 to 800 mg/mL.

In the case of CC1(C)S[C@@H]2[C@H](NC(=O)Cc3ccccc3)C(=O)N2[C@H]1C(=O)O [penicillin], the “adverse reactions of stomatitis or discoloration of the tongue” value ([5]; 4 days of penicillin medication) is given as “no observed adverse reactions”, the “status of ulcer after 4 days of medication” value ([5]; after 4 days) is given as “only remnants of a thin pearly whitish membrane remain, if any, covering an incompletely re-epithelialized newly healed ulcer” and the “known minimum inhibitory concentration (MIC) of the standard strain” value [6] is given as 0.25-2 units of penicillin/ml. For the same compound, the “efficacy of prior treatment” value (aphthous ulcers) was “ineffective” and the “adverse reactions of prior treatment” value (aphthous ulcers) was “likely to produce hypersensitivity”.

In the case of O=S(=O)([O-])[O-].[Zn+2] [zinc sulfate], the “efficacy of prior treatment” value (aphthous ulcers) is given as “responded”.
